Reference: patent US4268630A, “Microbiological production of ketones from C3 -C6 alkanes” (priority 1979, dated 1981)
Entries after “also recorded” stand apart in the source; their conditions may differ. Like-named read-outs stand apart in the source and are kept apart here.

Legend:
[1] = tested on: Methylobacterium organophilum XX (ATCC 27886); assay: Oxidation of sec-alcohols to ketones by resting cell suspension; type: cell-based
Method: (§1) The pH of the nutrient medium was adjusted to 7.0 by the addition of acid or base and 50 ml. samples of the nutrient medium were charged into a plurality of 300 ml. shaker flasks. The shaker flasks were inoculated with an inoculating loop of cells from an agar plate containing homogeneous colonies of the microorganisms on the plate (the purity of the isolates was confirmed by microscopic examination). The isolates had been maintained on methanol (0.4% V/V) agar plates or on agar plates under an atmosphere of methane and air having a 1:1 V/V gas ratio which had been transferred every two weeks. For growth on methanol, the medium was supplemented with 0.4% methanol. For growth on methane, the gaseous phase of the inoculated flasks was replaced with a gas mixture comprised on methane and air having a ratio of 1:1 on a V/V basis. The inoculated flasks were sealed air-tight and were incubated on a rotary shaker of orbital radius 2.5 cm. at 250 rpm and at 30° C. for two days until turbidity in the medium had developed. The cells were harvested by centrifugation at 10,000×g. at 4° C. for 30 minutes. The cell pellet was washed twice with a 0.05 M phosphate buffer at a pH of 7.0 (containing 0.02 M MgCl2). The washed cells were then suspended in a 0.05 M phosphate buffer at pH 7.0.
(§2) A 0.5 ml. sample of each washed cell suspension (2 mg. cells) was put into 10 ml. vials at 4° C. which were sealed with a rubber cap. The gaseous phase of the vials was removed with vacuum and then was replaced with a gas mixture of the substrate reactant (i.e., alkane or secondary alcohol) and oxygen at a 1:1 V/V ratio. (In the case of a liquid substrate, i.e., secondary alcohol, 10 μl of the substrate was put in the 10 ml. vials). […] Samples of product (1-3 μl) were withdrawn periodically with a microsyringe and the products were analyzed by gas chromatography (ionization flame detector column).
(§3) The procedure in Example 1 was repeated wherein a plurality of the methane-utilizing methylotrophic microorganisms were each grown aerobically in a nutrient medium containing methane as the alcohol dehydrogenase enzyme inducer and as the major carbon and energy source for growth. The cells were harvested and washed as described in Example 1. The resting microbial cells of the induced methane-grown methane-utilizing methylotrophic microorganisms were then contacted with C3 -C6 secondary alcohols in a buffered solution by the procedure of Example 1.
(§4) In this example, the procedure in Example 1 was repeated except that a plurality of methane-utilizing methylotrophic microorganisms were each aerobically grown in a methanol-containing nutrient medium instead of a methane-containing medium. The nutrients in the medium were the same as indicated in Example 1 except that 0.4% V/V methanol was used as the alcohol dehydrogenase inducer and major source of carbon and energy for growth. Following growth, the cells were harvested and washed as described in Example 1. The resting cells of the induced methanol-grown methylotrophic microorganisms were then contacted with secondary alcohols in a buffered solution by the procedure described in Example 1.
(§5) The procedure in Example 1 was repeated except that the methylotrophic microorganisms were each aerobically grown in an alcohol dehydrogenase-inducing growth medium containing methylamine or methyl formate as the alcohol dehydrogenase enzyme inducer and growth substrate instead of methane. The nutrients in the medium were the same as indicated in Example 1 except that 0.4% V/V of the alcohol dehydrogenase-inducer growth substrate was used as the major carbon and energy source. The cells were harvested and washed as described in Example 1. The resting microbial cells were then contacted with C3 -C6 secondary alcohols in a buffered solution by the conversion procedure of Example 1.

[2] = tested on: Methylosinus trichosporium OB3b (NRRL B-11,196); assay: as above; type: cell-based
Method: as §1, §2, §3, §4, §5

[3] = tested on: Pseudomonas MS ATCC 25262; assay: as above; type: cell-based; settings: methanol-grown, facultative
Method: as §1, §2
(§6) The procedure in Example 1 was repeated except that a plurality of methanol-utilizing methylotrophic microorganisms were each aerobically grown in a methanol-containing nutrient medium instead of a methane-containing medium. The nutrients in the medium were the same as indicated in Example 1 except that 0.4% V/V methanol was used as the alcohol dehydrogenase inducer and as the major carbon and energy source for growth. The cells were harvested and washed as described in Example 1. The resting microbial cells of the induced methanol-grown methanol-utilizing methylotrophic microorganisms were then contacted with C3 -C6 secondary alcohols in a buffered solution by the procedure of Example 1.

[4] = tested on: Pseudomonas sp. ATCC 21439; assay: as above; type: cell-based; settings: methanol-grown, obligate
Method: as §1, §2, §6

[5] = tested on: Hansenula polymorpha ATCC 26012; assay: Oxidation of sec-alcohols to ketones by cell suspensions of yeasts; type: cell-based
[6] = tested on: cell-free soluble extract of Pseudomonas sp. CRL 75 (ATCC 21,439); assay: Oxidation of secondary alcohols by cell-free soluble extract (NAD added); type: biochemical; settings: soluble crude extract, grown on methanol
Method: To prepare the cell-free secondary alcohol dehydrogenase (SADH) system, the washed cells were disrupted with a Wave Energy Ultrasonic Oscillator, Model W201 (Wave Energy System, Inc., Newtown, Pa.) and centrifuged at 20,000× g. for 30 minutes. […] The enzyme activity was measured with a fluorescence spectrophotometer (Perkin Elmer, Model MPF 44A) by following the formation of reduced NAD (EX 340 nm, Em 460 nm). The formation of reduced NAD was also followed with an absorption spectrophotometer at 340 nm. The assay system (3 ml.) contained: potassium phosphate buffer pH 7.0; 150 μmol.; NAD 1 μmol.; a given amount of enzyme preparation; and secondary alcohol 10 μmol. The reaction was started by the addition of substrate. One unit of enzyme activity represents the reduction of one μmole NAD per minute. Protein concentrations were determined by the Lowry method (J. Biol. Chem., 193: 255-275 (1951)).
The experimental procedure for the tests reported in Table VIII were as follows: 1 mg protein of crude extract was added into a 0.5 ml. 0.05 M phosphate buffer (pH 7.0) in a 10-ml. vial. […] The reaction mixture was incubated at 30° C. on a water bath. A 3 μl sample was removed with a syringe at 15 min. of incubation and was assayed with g.l.c. Catalytic activity was also assayed by fluorescence spectrophotometry.

[7] = tested on: cell extracts of Hansenula polymorpha ATCC 26,012; assay: NAD+-dependent oxidation of secondary alcohols by cell extracts of yeasts; type: biochemical; settings: for Conversion Rate, secondary alcohol to methylketone: cell extracts, grown on methanol, NAD+, gas chromatography
[8] = tested on: cell extracts of Kloeckera sp. strain A2 NRRL Y-11,420; assay: as above; type: biochemical; settings: for Conversion Rate, secondary alcohol to methylketone: cell extracts, grown on methanol, NAD+, gas chromatography
[9] = tested on: cell suspensions of C1-utilizers; assay: Production of 2-butanone from 2-butanol / sec-alcohol oxidation by cell suspensions of the strains tested; type: cell-based; settings: cell suspensions of C1-utilizers
Excerpt: The substrate specificity for the oxidation of C3 -C6 secondary alcohols by the strains of C1 -utilizers was studied.

[10] = tested on: secondary alcohol dehydrogenase; assay: Activity of purified yeast-derived secondary alcohol dehydrogenase; type: biochemical, Pichia sp. NRRL Y-11,328
[11] = spectrophotometric, 2-butanol as substrate

| Compound | Conversion Rates, sec-alcohol to methyl ketone ([1]; cells grown on methanol) [μmoles/hr/mg protein] | Conversion Rates, sec-alcohol to methyl ketone ([1]; methyl formate-grown) [μmoles/hr/mg protein] | Conversion Rates, sec-alcohol to methyl ketone ([1]; resting cells grown on methane) [μmoles/hr/mg protein] | Conversion Rates, sec-alcohol to methyl ketone ([2]; cells grown on methanol) [μmoles/hr/mg protein] | Conversion Rates, sec-alcohol to methyl ketone ([2]; methyl formate-grown) [μmoles/hr/mg protein] | Conversion Rates, sec-alcohol to methyl ketone ([2]; resting cells grown on methane) [μmoles/hr/mg protein] | Conversion Rates, sec-alcohol to methyl ketone [3] [μmoles/hr/mg protein] | Conversion Rates, sec-alcohol to methyl ketone [4] [μmoles/hr/mg protein] | Conversion Rate, sec-alcohol to ketone ([5]; growth substrate Ethanol) | Conversion Rate, sec-alcohol to ketone ([5]; growth substrate Methanol) | Conversion Rate, sec-alcohol to ketone ([5]; growth substrate Methylamine) | Conversion Rate, sec-alcohol to ketone ([5]; growth substrate Methylformate) | Conversion Rate, sec-alcohol to ketone ([5]; growth substrate Propylamine) | Oxidation Rate, sec-alcohol to methyl ketone [6] [nmole/min/mg protein] | Conversion Rate, secondary alcohol to methylketone [7] [μmoles/hr/mg Protein] | Conversion Rate, secondary alcohol to methylketone [8] [μmoles/hr/mg Protein] | substrate specificity: rate of oxidation of secondary alcohols (in words) [9] | substrate specificity of purified yeast secondary alcohol dehydrogenase (in words) ([10]; spectrophotometric) | also measured |
| --- | --- | --- | --- | --- | --- | --- | --- | --- | --- | --- | --- | --- | --- | --- | --- | --- | --- | --- | --- |
| CCCCC(C)O (centres unmarked) [2-Hexanol, 2-hexanol] | 1.1 | 0.70 | 0.12 | 0.9 | 0.72 | 0.07 | 0.80 | 0.03 | 0.54 μmoles/hr/mg of protein | 0.72 μmoles/hr/mg of protein | 0.62 μmoles/hr/mg of protein | 0.70 μmoles/hr/mg of protein | 0.48 μmoles/hr/mg of protein | 0 | 0.51 | 0.25 | oxidized at a much slower rate | catalyzed the oxidation |  |
| CCCC(C)O (centres unmarked) [2-Pentanol, 2-pentanol] | 0.9 | 1.0 | 0.82 | 2.9 | 1.5 | 2.7 | 2.1 | 0.05 | 1.1 μmoles/hr/mg of protein | 1.4 μmoles/hr/mg of protein | 1.2 μmoles/hr/mg of protein | 1.3 μmoles/hr/mg of protein | 0.82 μmoles/hr/mg of protein | 1.2 | 1.0 | 1.2 | oxidized at a much slower rate | catalyzed the oxidation |  |
| CC(C)O [2-Propanol, 2-propanol] | 0.70 | 0.48 | 0.5 | 0.30 | 0.95 | 0.25 | 0.80 | 7.4 | 5.0 μmoles/hr/mg of protein | 5.9 μmoles/hr/mg of protein | 5.2 μmoles/hr/mg of protein | 5.6 μmoles/hr/mg of protein | 4.1 μmoles/hr/mg of protein | 21.2 | 4.8 | 4.8 | oxidized at higher rates | catalyzed the oxidation |  |
| CCC(C)O (centres unmarked) [2-Butanol, 2-butanol] | 2.8 | 3.5 | 2.5 | 4.1 | 4.5 | 3.7 | 3.5 | 4.7 | 4.8 μmoles/hr/mg of protein | 5.8 μmoles/hr/mg of protein | 4.5 μmoles/hr/mg of protein | 5.2 μmoles/hr/mg of protein | 4.0 μmoles/hr/mg of protein | 25.0 | 5.2 | 5.9 | oxidized at the highest rate; also recorded: oxidized at higher rates |  | specific activities [7, 11]: 85 nmoles NAD^+ reduced per min. per mg. protein; specific activities [8, 11]: 90 nmoles NAD^+ reduced per min. per mg. protein; substrate specificity of purified yeast secondary alcohol dehydrogenase (in words) [10]: catalyzed the oxidation |
